Reference: US20230203485A1, “METHODS FOR MODULATING MHC-I EXPRESSION AND IMMUNOTHERAPY USES THEREOF” (Dana-Farber Cancer Institute, Inc., priority 2020, published 2023)

Tested on: class I antigen presentation gene expression in MCC cell lines
Assay: RNA-seq / DESeq2 differential expression of MCC cell lines at baseline and after IFN-γ stimulation
Format: cell-based, human
Details: for log2FoldChange: 11 MCC cell lines, baseline vs IFNγ, negative LFC = upregulation in IFNγ-treated
Procedure: FIG. 2A comprises RNA-seq heatmaps of class I antigen presentation gene expression in MCC lines and controls.
FIG. 2B is a volcano plot of differentially expressed genes (genes below FDR cutoff 0.01 are shown in yellow) between baseline and IFN-γ-treated MCC cell lines. Differential expression analysis was performed using DESeq2, and negative LFC indicates increased expression in +IFN-γ samples. IFN genes are highlighted in red.
RNA samples were first assessed for quality using the Agilent Bioanalyzer (DV200 metric). One hundred ng of RNA were used as the input for first strand cDNA synthesis using Superscript III reverse transcriptase and Illumina's TruSeq RNA Access Sample Prep Kit. Synthesis of the second strand of cDNA was followed by indexed adapter ligation with UMI (unique molecular index) adaptors. Subsequent PCR amplification enriched for adapted fragments. Amplified libraries were quantified, normalized, pooled, and hybridized with exome targeting oligos. Following hybridization, bead clean-up, elution and PCR was performed to prepare library pools for sequencing on Illumina flowcell lanes. Transcriptomes were sequenced to a coverage of at least 50 million reads in pairs.
Raw fastq files for fibroblast and keratinocyte control lines were downloaded from SRA using R Bioconductor package SRAdb (Mayakonda et al. (2018) supra; Zhu et al. (2013) BMC Bioinformatics 14 (1): 1-4) using accession codes SRP126422 (4 replicates from control samples ‘NN’) and SRP131347 (6 replicates with condition: control and genotype: control). These fastq files, along with those for the mkl1 and waga cell lines, were aligned using STAR version 2.7.3a (Dobin et al. (2013) Bioinformatics 29 (1): 15-21), using index genome reference file downloaded from ftp.ebi.ac.uk/pub/databases/gencode/Gencode_human/release_19/GRCh37.p13.genome.fa.gz, transcript annotation file downloaded from data.broadinstitute.org/snowman/hg19/star/gencode.v19.annotation.gtf, and with the following options: --twopassMode Basic, --outSAMstrandField intronMotif, --alignIntronMax 1000000, --alignMatesGapMax 1000000, --sjdbScore 2, --outSAMtype BAM Unsorted, --outSAMattributes NH HI NM MD AS XS, --outFilterType BySJout, --outSAMunmapped Within, --genomeLoad NoSharedMemory, --outFilterScoreMinOverLread 0, --outFilterMatchNminOverLread 0, --outFilterMismatchNmax 999, and outFilterMultimapNmax 20. Duplicates were marked with picard MarkDuplicates version 2.22.0-SNAPSHOT.
RNA-sequencing bam files for MCC tumor and cell line samples were downloaded from the Broad Genomics Firecloud/Terra platform using the Google Cloud Storage command line tool gsutil version 4.5 (github.com/GoogleCloudPlatform/gsutil/).
Gene counts were obtained from bam files using featureCounts version 2.0.0 (doi.org/10.1093/bioinformatics/btt656). Very lowly expressed genes with average count across samples less than 1 were excluded from analysis. Between-sample distance metrics were computed using the Euclidean distance on the vectors of variance-stabilized counts obtained from the vst function in the DESeq2 R Bioconductor package ([…]; Love et al. (2014) Genome Biology 15 (12): 550).
Differential expression analysis was carried out between (1) viral positive and viral negative samples (adjusting for cell line or tumor as a covariate), (2) cell line and tumor samples (adjusting for viral status as a covariate), and (3) IFNγ plus and minus samples (adjusting for viral status as a covariate) using the negative binomial GLM Wald test of DESeq2, where significance was assessed using the p-values adjusted for multiple comparisons under default settings. To account for potential global gene expression differences among sample groups, RUVg (Risso et al. (2014) […] 32 (9): 896-902) was used to estimate latent factors of unwanted variation from the list of housekeeping genes downloaded from www.tau.ac.il/˜elieis/HKG/HK_genes.txt. […]

IFN-y: type II interferon, recombinant human, used to treat MCC cells
log2FoldChange (ENSG00000259321.1 (symbol NA)): −2.031 | log2FoldChange (ENSG00000259529.1 (symbol NA)): −0.9956 | log2FoldChange (ENSG00000260929.1 (symbol NA)): −3.413 | log2FoldChange (ENSG00000261644.1 (symbol NA)): −3.585 | log2FoldChange (ENSG00000261690.1 (symbol NA)): −3.339 | log2FoldChange (ENSG00000261884.2 (symbol NA)): −2.414 | log2FoldChange (ENSG00000262222.1 (symbol NA)): −3.296 | log2FoldChange (ENSG00000262979.1 (symbol NA)): −3.334 | log2FoldChange (ENSG00000263013.1 (symbol NA)): −1.286 | log2FoldChange (ENSG00000263120.1 (symbol NA)): −1.445 | log2FoldChange (ENSG00000263179.1 (symbol NA)): −3.474 | log2FoldChange (ENSG00000269640.1 (symbol NA)): −6.567 | log2FoldChange (ENSG00000271579.1 (symbol NA)): −6.737 | log2FoldChange (ENSG00000273189.1 (symbol NA)): −1.701 | log2FoldChange (EPSTI1 ENSG00000133106.10): −3.837 | log2FoldChange (FBXO7 ENSG00000100225.13): −0.4101 | log2FoldChange (FBXO39 ENSG00000177294.6): −6.492 | log2FoldChange (FBXO47 ENSG00000204952.2): −4.04 | log2FoldChange (FLT3LG ENSG00000090554.8): −2.012 | log2FoldChange (HELZ2 ENSG00000130589.12): −1.739 | log2FoldChange (ICAM1 ENSG00000090339.4): −6.633 | log2FoldChange (IFI27 ENSG00000165949.8): −3.4 | log2FoldChange (IFI35 ENSG00000068079.3): −6.454 | log2FoldChange (IL12RB1 ENSG00000096996.11): −4.561 | log2FoldChange (IRF8 ENSG00000140968.6): −2.927 | log2FoldChange (IRF9 ENSG00000213928.4): −2.537 | log2FoldChange (ISG20 ENSG00000172183.10): −2.416 | log2FoldChange (KRT39 ENSG00000196859.3): −4.95 | log2FoldChange (LGALS3BP ENSG00000108679.8): −1.502 | log2FoldChange (LGALS9 ENSG00000168961.12): −2.739 | log2FoldChange (LGALS17A ENSG00000226025.5): −5.881 | log2FoldChange (LINC01993 ENSG00000204277.1): −2.419 | log2FoldChange (LOC254028 ENSG00000258573.1): −5.436 | log2FoldChange (LOC100294362 ENSG00000263069.1): 1.32 | log2FoldChange (LOC100996660 ENSG00000267248.1): −0.6048 | HLA-A, -B, and -C mRNA (MCC-336, line non-IFN-responsive by flow cytometry): lack of IFN-induced HLA-A, -B, and -C mRNA upregulation | log2FoldChange (MIR762HG ENSG00000260083.1): −0.6586 | log2FoldChange (MLKL ENSG00000168404.8): −2.957 | log2FoldChange (MT2A ENSG00000125148.6): −1.532 | log2FoldChange (MVP ENSG00000013364.14): −1.512 | log2FoldChange (MX2 ENSG00000183486.8): −5.048 | log2FoldChange (MXI ENSG00000157601.9): −7.168 | log2FoldChange (NLRC5 ENSG00000140853.11): −5.85 | log2FoldChange (NUCB1 ENSG00000104805.11): −0.6283 | log2FoldChange (OAS1 ENSG00000089127.8): −4.621 | log2FoldChange (OAS2 ENSG00000111335.8): −5.442 | log2FoldChange (OAS3 ENSG00000111331.8): −2.277 | log2FoldChange (OASL ENSG00000135114.8): −6.129 | log2FoldChange (OGFR ENSG00000060491.12): −1 | log2FoldChange (PARP4 ENSG00000102699.5): −1.087 | log2FoldChange (PATL2 ENSG00000229474.2): −4.443 | log2FoldChange (PLK1 ENSG00000166851.10): 0.5496 | log2FoldChange (PMAIP1 ENSG00000141682.11): −0.9928 | log2FoldChange (PML ENSG00000140464.15): −1.421 | log2FoldChange (PSMA3 ENSG00000100567.8): −0.4149 | log2FoldChange (PSMB10 ENSG00000205220.7): −5.255 | log2FoldChange (PSME1 ENSG00000092010.10): −1.964 | log2FoldChange (PSME2 ENSG00000100911.9): −1.919 | log2FoldChange (RAB2B ENSG00000129472.8): −0.4425 | log2FoldChange (RIN3 ENSG00000100599.11): −2.337 | log2FoldChange (RNF31 ENSG00000092098.12): −0.6387 | log2FoldChange (RNF213 ENSG00000173821.15): −3.097 | log2FoldChange (SAMHD1 ENSG00000101347.7): −2.663 | log2FoldChange (SOCS1 ENSG00000185338.4): −2.585 | log2FoldChange (SOCS3 ENSG00000184557.3): −1.797 | log2FoldChange (SPTLC3 ENSG00000172296.8): −2.773 | log2FoldChange (STAT3 ENSG00000168610.10): −0.9181 | log2FoldChange (TEKT5 ENSG00000153060.3): −1.743 | log2FoldChange (TRAFD1 ENSG00000135148.7): −0.5883 | log2FoldChange (TRIM25 ENSG00000121060.10): −1.048 | log2FoldChange (TRIM69 ENSG00000185880.8): −2.829 | log2FoldChange (USP18 ENSG00000184979.9): −1.899 | log2FoldChange (USP30-AS1 ENSG00000256262.1): −8.218 | log2FoldChange (VPS13C ENSG00000129003.11): −0.9131 | log2FoldChange (WARS ENSG00000140105.13): −3.32 | log2FoldChange (WIPI1 ENSG00000070540.8): −1.205 | log2FoldChange (XAFI ENSG00000132530.12): −11.47 | log2FoldChange (ZBP1 ENSG00000124256.10): −5.347 | log2FoldChange (ZNFX1 ENSG00000124201.10): −1.109
